Experimental data as given in patent publication US12370192B2, “Azole-fused pyridazin-3(2H)-one derivatives” (TAKEDA PHARMACEUTICAL COMPANY LIMITED, priority 2019, dated 2025).

Tests used:
human GPR139 receptor [1] = target: T1, human GPR139 receptor (Homo sapiens, UniProt Q6DWJ6); assay: GPR139 Competition Binding (membrane-based, tritium-labeled ligand); details: T-REx-CHO membranes with human GPR139; 6.5 nM tritium-labeled ligand; 11-point curve, 30 μM maximum concentration; read-out: GPR139 Binding Affinity (pKi) (converted)
T1 construct: expressed in transfected cells; host or cells: T-REx-CHO (Thermo Fisher Scientific), doxycycline-induced
T1 sequence (Q6DWJ6 1-353): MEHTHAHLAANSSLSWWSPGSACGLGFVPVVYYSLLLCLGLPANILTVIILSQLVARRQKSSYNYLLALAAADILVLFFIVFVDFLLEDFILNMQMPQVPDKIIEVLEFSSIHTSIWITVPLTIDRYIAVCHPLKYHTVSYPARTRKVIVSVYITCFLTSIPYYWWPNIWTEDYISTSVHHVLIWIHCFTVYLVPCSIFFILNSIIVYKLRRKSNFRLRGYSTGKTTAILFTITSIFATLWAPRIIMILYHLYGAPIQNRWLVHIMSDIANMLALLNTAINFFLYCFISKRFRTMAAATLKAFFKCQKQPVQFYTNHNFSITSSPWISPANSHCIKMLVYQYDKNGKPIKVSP
Summary of the method: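 Membranes came from doxycycline-induced T-REx-CHO cells expressing human GPR139. They were incubated 20 min at room temperature with 6.5 nM tritiated ligand and compound (11 points, top 30 μM) in HEPES pH 7.3 buffer with MgCl2/CaCl2. Filter-bound counts gave Ki by four-parameter fit, reported as pKi.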

human GPR139 receptor [2] = target: T1, human GPR139 receptor; assay: Measurement of GPR139 Activation Via Calcium Signaling (FLIPR, T-REx-CHO cells); type: cell-based; details: T-REx-CHO cells stably expressing human GPR139, 11-point dose response, 10 μM maximum concentration, read-out: GPR139 Potency (pEC50) (converted)
Summary of the method: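 Calcium flux read by FLIPR for 1 min after adding compounds (11 concentrations, maximum 10 μM) to doxycycline-induced (2 μg/mL, 17 h) T-REx-CHO cells expressing human GPR139. Cells dye-loaded 40 min at 37 °C in HBSS, 1 mM HEPES pH 7.4 with probenecid; activation reported as pEC50 from four-parameter logistic fit.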

Ki (human GPR139 receptor [1]) [nM]	EC50 (human GPR139 receptor [2]) [nM]	Compound
132	14.1	Cc1nn(C2CC2)c2cnn(CC(=O)N[C@@H](C)c3cc(F)cc(F)c3)c(=O)c12 [Example 135, (S)-2-(1-cyclopropyl-3-methyl-4-oxo-1,4-dihydro-5H-pyrazolo[3,4-d]pyridazin-5-yl)-N-(1-(3,5-difluorophenyl)ethyl)acetamide]
81.3	91.2	Cc1nn(C2CC2)c2cnn(CC(=O)N[C@@H](C)c3c(F)cccc3Cl)c(=O)c12 [Example 136, (S)—N-(1-(2-chloro-6-fluorophenyl)ethyl)-2-(1-cyclopropyl-3-methyl-4-oxo-1,4-dihydro-5H-pyrazolo[3,4-d]pyridazin-5-yl)acetamide]
30200	2630	Cc1nn(CC(=O)N[C@@H](C)c2ccc(C(F)(F)F)cn2)c(=O)c2ncn(C)c12 [Example 137, (S)-2-(1,7-dimethyl-4-oxo-1,4-dihydro-5H-imidazo[4,5-d]pyridazin-5-yl)-N-(1-(5-(trifluoromethyl)pyridin-2-yl)ethyl)acetamide]
30200	363	Cc1ccc([C@H](C)NC(=O)Cn2ncc3ncn(C)c3c2=O)cc1 [Example 138, (S)-2-(3-methyl-4-oxo-3,4-dihydro-5H-imidazo[4,5-d]pyridazin-5-yl)-N-(1-(p-tolyl)ethyl)acetamide]
3800	257	C[C@H](NC(=O)Cn1ncc2ncn(C)c2c1=O)c1ccc(C(F)(F)F)cc1 [Example 139, (S)-2-(3-methyl-4-oxo-3,4-dihydro-5H-imidazo[4,5-d]pyridazin-5-yl)-N-(1-(4-(trifluoromethyl)phenyl)ethyl)acetamide]
30200	525	Cc1ccc([C@H](C)NC(=O)Cn2ncc3c(ncn3C)c2=O)cc1 [Example 140, (S)-2-(1-methyl-4-oxo-1,4-dihydro-5H-imidazo[4,5-d]pyridazin-5-yl)-N-(1-(p-tolyl)ethyl)acetamide]
5890	457	C[C@H](NC(=O)Cn1ncc2c(ncn2C)c1=O)c1ccc(C(F)(F)F)cc1 [Example 141, (S)-2-(1-methyl-4-oxo-1,4-dihydro-5H-imidazo[4,5-d]pyridazin-5-yl)-N-(1-(4-(trifluoromethyl)phenyl)ethyl)acetamide]
229	95.5	C[C@H](NC(=O)Cn1ncc2c(C3CC3)nn(C)c2c1=O)c1ccc(C(F)(F)F)cc1 [Example 142, (S)-2-(3-cyclopropyl-1-methyl-7-oxo-1,7-dihydro-6H-pyrazolo[3,4-d]pyridazin-6-yl)-N-(1-(4-(trifluoromethyl)phenyl)ethyl)acetamide]
178	117	C[C@H](NC(=O)Cn1ncc2c(C3CC3)nn(C)c2c1=O)c1ccc(OC(F)(F)F)cc1 [Example 143, (S)-2-(3-cyclopropyl-1-methyl-7-oxo-1,7-dihydro-6H-pyrazolo[3,4-d]pyridazin-6-yl)-N-(1-(4-(trifluoromethoxy)phenyl)ethyl)acetamide]
20	83.2	Cc1cn(C2CC2)c2cnn(CC(=O)N[C@@H](C)c3ccc(C(F)(F)F)cc3)c(=O)c12 [Example 144, (S)-2-(1-cyclopropyl-3-methyl-4-oxo-1,4-dihydro-5H-pyrrolo[2,3-d]pyridazin-5-yl)-N-(1-(4-(trifluoromethyl)phenyl)ethyl)acetamide]
89.1	29.5	COc1ccc([C@H](C)NC(=O)Cn2ncc3c(c(C)cn3C3CC3)c2=O)cc1 [Example 145, (S)-2-(1-cyclopropyl-3-methyl-4-oxo-1,4-dihydro-5H-pyrrolo[2,3-d]pyridazin-5-yl)-N-(1-(4-methoxyphenyl)ethyl)acetamide]
34.7	51.3	Cc1cn(C2CC2)c2cnn(CC(=O)N[C@@H](C)c3ccccc3)c(=O)c12 [Example 146, (S)-2-(1-cyclopropyl-3-methyl-4-oxo-1,4-dihydro-5H-pyrrolo[2,3-d]pyridazin-5-yl)-N-(1-phenylethyl)acetamide]
7.59	33.1	Cc1ccc([C@H](C)NC(=O)Cn2ncc3c(c(C)cn3C3CC3)c2=O)cc1 [Example 147, (S)-2-(1-cyclopropyl-3-methyl-4-oxo-1,4-dihydro-5H-pyrrolo[2,3-d]pyridazin-5-yl)-N-(1-(p-tolyl)ethyl)acetamide]

Further lines, the compound ahead of its results:

Compound	Ki (human GPR139 receptor [1]) [nM]	EC50 (human GPR139 receptor [2]) [nM]
Cc1ccc([C@H](C)NC(=O)Cn2ncc3c(c(C)nn3C3CC3)c2=O)cc1 [Example 122, (S)-2-(1-cyclopropyl-3-methyl-4-oxo-1,4-dihydro-5H-pyrazolo[3,4-d]pyridazin-5-yl)-N-(1-(p-tolyl)ethyl)acetamide]	245	83.2
COc1ccc([C@H](C)NC(=O)Cn2nc(C)c3c(c(C)nn3C)c2=O)cc1 [Example 123, (S)—N-(1-(4-methoxyphenyl)ethyl)-2-(1,3,7-trimethyl-4-oxo-1,4-dihydro-5H-pyrazolo[3,4-d]pyridazin-5-yl)acetamide]	1450	2140
Cc1ccc([C@H](C)NC(=O)Cn2ncc3c(c(C4CC4)nn3C)c2=O)c(F)c1 [Example 124, (S)-2-(3-cyclopropyl-1-methyl-4-oxo-1,4-dihydro-5H-pyrazolo[3,4-d]pyridazin-5-yl)-N-(1-(2-fluoro-4-methylphenyl)ethyl)acetamide]	7.08	60.3
C[C@H](NC(=O)Cn1ncc2c(c(C3CC3)nn2C)c1=O)c1ccc(OC(F)(F)F)cc1 [Example 125, (S)-2-(3-cyclopropyl-1-methyl-4-oxo-1,4-dihydro-5H-pyrazolo[3,4-d]pyridazin-5-yl)-N-(1-(4-(trifluoromethoxy)phenyl)ethyl)acetamide]	47.9	123
Cc1nn(C)c2cnn(CC(=O)N[C@@H](C)c3c(F)cccc3F)c(=O)c12 [Example 126, (S)—N-(1-(2,6-difluorophenyl)ethyl)-2-(1,3-dimethyl-4-oxo-1,4-dihydro-5H-pyrazolo[3,4-d]pyridazin-5-yl)acetamide]	955	324
COc1ccc([C@H](C)NC(=O)Cn2ncc3c(c(C)nn3C3CC3)c2=O)c(F)c1 [Example 127, (S)-2-(1-cyclopropyl-3-methyl-4-oxo-1,4-dihydro-5H-pyrazolo[3,4-d]pyridazin-5-yl)-N-(1-(2-fluoro-4-methoxyphenyl)ethyl)acetamide]	933	25.7
Cc1nn(C2CC2)c2cnn(CC(=O)N[C@@H](C)c3ccc(F)cc3F)c(=O)c12 [Example 128, (S)-2-(1-cyclopropyl-3-methyl-4-oxo-1,4-dihydro-5H-pyrazolo[3,4-d]pyridazin-5-yl)-N-(1-(2,4-difluorophenyl)ethyl)acetamide]	257	67.6
COc1ccc([C@H](C)NC(=O)Cn2ncc3c(c(C)nn3C3CC3)c2=O)cc1F [Example 129, (S)-2-(1-cyclopropyl-3-methyl-4-oxo-1,4-dihydro-5H-pyrazolo[3,4-d]pyridazin-5-yl)-N-(1-(3-fluoro-4-methoxyphenyl)ethyl)acetamide]	724	53.7
Cc1ccc([C@H](C)NC(=O)Cn2ncc3c(c(C)nn3C3CC3)c2=O)cc1F [Example 130, (S)-2-(1-cyclopropyl-3-methyl-4-oxo-1,4-dihydro-5H-pyrazolo[3,4-d]pyridazin-5-yl)-N-(1-(3-fluoro-4-methylphenyl)ethyl)acetamide]	38	17.8
Cc1nn(C2CC2)c2cnn(CC(=O)N[C@@H](C)c3ccc(F)cc3Cl)c(=O)c12 [Example 131, (S)—N-(1-(2-chloro-4-fluorophenyl)ethyl)-2-(1-cyclopropyl-3-methyl-4-oxo-1,4-dihydro-5H-pyrazolo[3,4-d]pyridazin-5-yl)acetamide]	42.7	41.7
COc1cc([C@H](C)NC(=O)Cn2ncc3c(c(C)nn3C3CC3)c2=O)ccc1F [Example 132, (S)-2-(1-cyclopropyl-3-methyl-4-oxo-1,4-dihydro-5H-pyrazolo[3,4-d]pyridazin-5-yl)-N-(1-(4-fluoro-3-methoxyphenyl)ethyl)acetamide]	2240	708
Cc1nn(C2CC2)c2cnn(CC(=O)N[C@@H](C)c3c(F)cc(F)cc3F)c(=O)c12 [Example 133, (S)-2-(1-cyclopropyl-3-methyl-4-oxo-1,4-dihydro-5H-pyrazolo[3,4-d]pyridazin-5-yl)-N-(1-(2,4,6-trifluorophenyl)ethyl)acetamide]	316	295
Cc1cc([C@H](C)NC(=O)Cn2ncc3c(c(C)nn3C3CC3)c2=O)ccc1F [Example 134, (S)-2-(1-cyclopropyl-3-methyl-4-oxo-1,4-dihydro-5H-pyrazolo[3,4-d]pyridazin-5-yl)-N-(1-(4-fluoro-3-methylphenyl)ethyl)acetamide]	589	24
